Test [1] has as its target T1, Recombinant purified human JAK3 (Homo sapiens, UniProt P52333).
T1 construct: purchased Promega V9441
T1 sequence (P52333 1-1124): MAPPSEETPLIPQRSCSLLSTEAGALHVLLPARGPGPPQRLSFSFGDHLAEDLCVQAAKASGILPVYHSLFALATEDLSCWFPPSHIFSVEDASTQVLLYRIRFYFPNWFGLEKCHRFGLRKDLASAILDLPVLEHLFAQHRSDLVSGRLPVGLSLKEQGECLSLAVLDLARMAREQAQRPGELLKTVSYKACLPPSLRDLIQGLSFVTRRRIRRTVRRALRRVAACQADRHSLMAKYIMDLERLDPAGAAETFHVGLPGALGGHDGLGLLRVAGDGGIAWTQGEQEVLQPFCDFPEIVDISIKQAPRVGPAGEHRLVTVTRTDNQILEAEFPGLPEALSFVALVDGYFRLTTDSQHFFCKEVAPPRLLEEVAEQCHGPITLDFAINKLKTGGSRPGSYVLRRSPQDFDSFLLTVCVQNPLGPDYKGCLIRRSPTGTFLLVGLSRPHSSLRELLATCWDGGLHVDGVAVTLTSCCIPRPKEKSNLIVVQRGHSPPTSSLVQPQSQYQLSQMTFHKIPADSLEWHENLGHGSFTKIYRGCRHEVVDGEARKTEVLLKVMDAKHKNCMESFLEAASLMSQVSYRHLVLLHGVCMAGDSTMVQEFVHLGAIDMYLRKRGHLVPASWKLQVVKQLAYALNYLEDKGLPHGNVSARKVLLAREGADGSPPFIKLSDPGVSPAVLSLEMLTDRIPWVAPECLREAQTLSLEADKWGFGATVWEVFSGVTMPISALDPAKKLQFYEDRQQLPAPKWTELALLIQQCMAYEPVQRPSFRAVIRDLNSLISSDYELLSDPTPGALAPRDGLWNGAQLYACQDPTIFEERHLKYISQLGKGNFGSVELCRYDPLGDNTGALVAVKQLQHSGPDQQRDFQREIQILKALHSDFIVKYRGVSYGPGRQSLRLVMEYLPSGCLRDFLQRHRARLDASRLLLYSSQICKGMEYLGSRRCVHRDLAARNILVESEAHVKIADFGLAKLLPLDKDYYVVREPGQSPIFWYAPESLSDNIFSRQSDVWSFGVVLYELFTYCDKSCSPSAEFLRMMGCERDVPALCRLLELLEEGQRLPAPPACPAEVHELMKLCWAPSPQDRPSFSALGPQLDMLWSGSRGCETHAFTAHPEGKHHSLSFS
As to the kind of experiment: JAK3 kinase inhibitory activity, ADP-Glo kinase assay (Promega V9441). The test is classed as biochemical. Conditions: ATP 5 uM, 4 ng JAK3 per reaction, 1 hour 30 °C, chemiluminescence. The essentials:
(§1)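 IC50 values come from ADP-Glo luminescence after 1 h kinase reactions at 30 °C in 1% DMSO on 0.2 µg/µL Poly(Glu4,Tyr1) substrate. ATP was 10 µM for BTK (8 ng, buffer containing MnCl2) and 5 µM for JAK3 (4 ng), in Tris-Cl pH 7.5/MgCl2/BSA/DTT.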
On the technique in general: In ADP-Glo the light output rises with the ADP produced.

Test [2] deals with T2, Recombinant purified human BTK (Homo sapiens, UniProt Q06187).
T2 construct: purchased Promega V9071
T2 sequence (Q06187 whole entry): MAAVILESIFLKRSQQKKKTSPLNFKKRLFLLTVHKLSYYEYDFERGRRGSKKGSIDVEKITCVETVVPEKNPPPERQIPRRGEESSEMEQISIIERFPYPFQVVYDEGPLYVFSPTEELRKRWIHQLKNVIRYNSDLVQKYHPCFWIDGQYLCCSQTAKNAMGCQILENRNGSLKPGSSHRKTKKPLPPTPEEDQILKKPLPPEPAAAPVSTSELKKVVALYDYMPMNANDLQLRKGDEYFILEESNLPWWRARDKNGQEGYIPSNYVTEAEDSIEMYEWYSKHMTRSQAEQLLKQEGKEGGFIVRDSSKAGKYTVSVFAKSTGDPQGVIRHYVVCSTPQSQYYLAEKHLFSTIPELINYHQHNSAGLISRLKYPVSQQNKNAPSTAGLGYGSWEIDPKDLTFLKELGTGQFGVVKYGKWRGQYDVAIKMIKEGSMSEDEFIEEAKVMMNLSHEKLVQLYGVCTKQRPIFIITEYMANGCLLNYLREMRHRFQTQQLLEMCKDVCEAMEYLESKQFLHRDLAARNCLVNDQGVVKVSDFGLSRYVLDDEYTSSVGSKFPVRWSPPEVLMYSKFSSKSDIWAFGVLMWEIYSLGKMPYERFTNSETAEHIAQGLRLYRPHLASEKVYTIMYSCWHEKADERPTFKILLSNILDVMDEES
As to the kind of experiment: BTK kinase inhibitory activity, ADP-Glo kinase assay (Promega V9071). The test is classed as biochemical. The conditions noted are these: ATP 10 uM, 8 ng BTK per reaction, 1 hour 30 °C, chemiluminescence. In a few lines:
as §1

Some results are limits rather than exact numbers.

One may read the IC50 as the concentration needed to halve the response being measured.

Consider `C=CC(=O)N1CCC[C@@H](Sc2nc(Nc3cnn(CC(F)(F)F)c3)nc3[nH]nc(Cl)c23)C1` [Example 114, (R)-1-(3-((3-chloro-6-((1-(2,2,2-trifluoroethyl)-1H-pyrazol-4-yl)amino)-1H-pyrazolo [3,4-d]pyrimidin-4-yl)thio)piperidin-1-yl)prop-2-en-1-one], for which the IC50 in test [1] came to 0.9 nM; in test [2], 2.3 nM.
Take `C=CC(=O)N1CCC[C@@H](Sc2nc(Nc3cnn(CCC)c3)nc3[nH]nc(Cl)c23)C1` [Example 115, (R)-1-(3-((3-chloro-6-((1-propyl-1H-pyrazol-4-yl)amino)-1H-pyrazolo[3,4-d]pyrimidin-4-yl)thio)piperidin-1-yl)prop-2-en-1-one]: the IC50 in test [1] came out at 1.7 nM; in test [2], 2 nM.
For the compound `C=CC(=O)N1CCC[C@@H](Sc2nc(Nc3cnoc3)nc3[nH]nc(Cl)c23)C1` [Example 116, (R)-1-(3-((3-chloro-6-(isoxazol-4-ylamino)-1H-pyrazolo [3,4-d]pyrimidin-4-yl)thio)piperidin-1-yl)prop-2-en-1-one], the results for the IC50 in test [1] and in test [2] were 19.5 nM and 25.3 nM, respectively.
For `C=CC(=O)N1CCC[C@@H](Nc2nc(Nc3cnoc3C)nc3[nH]nc(Cl)c23)C1` [Example 117], in that order: above 400 nM and 81.2 nM.
For `C=CC(=O)N1CCC[C@@H](N(C)c2nc(Nc3cnn(CC)c3)nc3[nH]nc(Cl)c23)C1` [Example 118, (R)-1-(3-((3-chloro-6-((1-ethyl-1H-pyrazol-4-yl)amino)-1H-pyrazolo[3,4-d]pyrimidin-4-yl)(methyl)amino)piperidin-1-yl)prop-2-en-1-one], in that order: 3.2 nM and 1.3 nM.
For `C=CC(=O)N1CCC[C@@H](N(C)c2nc(Nc3cnoc3)nc3[nH]nc(Cl)c23)C1` [Example 119] the same measures were 32.5 nM and 11.1 nM.
As to `C=CC(=O)N1CC[C@@H](C)[C@@H](Nc2nc(Nc3cnn(CC(F)(F)F)c3)nc3[nH]nc(Cl)c23)C1` [Example 120, 1-((3R,4R)-3-((3-chloro-6-((1-(2,2,2-trifluoroethyl)-1H-pyrazol-4-yl)amino)-1H-pyrazolo[3,4-d]pyrimidin-4-yl)amino)-4-methylpiperidin-1-yl)prop-2-en-1-one], the IC50 in test [1] stood at 7.8 nM; in test [2] it was 7.5 nM.
As to `C=CC(=O)N1CC[C@@H](C)[C@@H](Nc2nc(Nc3cnn(CCC)c3)nc3[nH]nc(Cl)c23)C1` [Example 121, 1-((3R,4R)-3-((3-chloro-6-((1-propyl-1H-pyrazol-4-yl)amino)-1H-pyrazolo[3,4-d]pyrimidin-4-yl)amino)-4-methylpiperidin-1-yl)prop-2-en-1-one], the values for the IC50 in test [1] and in test [2] were 18 nM and 4.9 nM, respectively.
Consider `C=CC(=O)N1CC[C@@H](C)[C@@H](Nc2nc(Nc3cnn(CCN(CC)CC)c3)nc3[nH]nc(Cl)c23)C1` [Example 122, 1-((3R,4R)-3-((3-chloro-6-((1-(2-(diethylamino)ethyl)-1H-pyrazol-4-yl)amino)-1H-pyrazolo[3,4-d]pyrimidin-4-yl)amino)-4-methylpiperidin-1-yl)prop-2-en-1-one], for which the IC50 was determined as 8.1 nM in test [1] and 6 nM in test [2].
For `C=CC(=O)N1CC[C@@H](C)[C@@H](Nc2nc(Nc3cnn(CCN4CCOCC4)c3)nc3[nH]nc(Cl)c23)C1` [Example 123, 1-((3R,4R)-3-((3-chloro-6-((1-(2-morpholinoethyl)-1H-pyrazol-4-yl)amino)-1H-pyrazolo[3,4-d]pyrimidin-4-yl)amino)-4-methylpiperidin-1-yl)prop-2-en-1-one], in that order: 7.9 nM and 5.8 nM.
Take `C=CC(=O)N1CC[C@@H](C)[C@@H](Nc2nc(Nc3cnn(CC(C)C)c3)nc3[nH]nc(Cl)c23)C1` [Example 124, 1-((3R,4R)-3-((3-chloro-6-((1-isobutyl-1H-pyrazol-4-yl)amino)-1H-pyrazolo[3,4-d]pyrimidin-4-yl)amino)-4-methylpiperidin-1-yl)prop-2-en-1-one]: the values for the IC50 in test [1] and in test [2] were 8.4 nM and 3.5 nM, respectively.
On to `C=CC(=O)N1CC[C@@H](C)[C@@H](Nc2nc(Nc3cnn(Cc4cccc(OC)c4)c3)nc3[nH]nc(Cl)c23)C1` [Example 125, 1-((3R,4R)-3-((3-chloro-6-((1-(3-methoaybenzyl)-1H-pyrazol-4-yl)amino)-1H-pyrazolo[3,4-d]pyrimidin-4-yl)amino)-4-methylpiperidin-1-yl)prop-2-en-1-one], for which the IC50 in test [1] was 20.4 nM; in test [2], 8.2 nM.
In the case of `C=CC(=O)N1CC[C@@H](C)[C@@H](Nc2nc(Nc3cnn(CC#N)c3)nc3[nH]nc(Cl)c23)C1` [Example 126, 2-(4-((4-(((3R,4R)-1-acryloyl-4-methylpiperidin-3-yl)amino)-3-chloro-1H-pyrazolo[3,4-d]pyrimidin-6-yl)amino)-1H-pyrazol-1-yl)acetonitrile], the concentration for half-maximal inhibition (IC50) in test [1] came to 2.9 nM; in test [2], 1.2 nM.
For `C=CC(=O)N1CC[C@@H](C)[C@@H](Nc2nc(Nc3cnn(C(F)F)c3)nc3[nH]nc(Cl)c23)C1` [Example 127, 1-((3R,4R)-3-((3-chloro-6-((1-(difluoromethyl)-1H-pyrazol-4-yl)amino)-1H-pyrazolo [3,4-d]pyrimidin-4-yl)amino)-4-methylpiperidin-1-yl)prop-2-en-1-one], in that order: 43.1 nM and 1.5 nM.
Consider `C=CC(=O)N1CC[C@@H](C)[C@@H](Nc2nc(Nc3cnn(C)c3)nc3[nH]nc(Cl)c23)C1` [Example 128], for which the figures for the IC50 in test [1] and in test [2] were 14.6 nM and 5.8 nM, respectively.
For `C=CC(=O)N1CCC[C@@H](Nc2nc(Nc3cnn(C4CC4)c3)nc3[nH]nc(SC)c23)C1` [Example 129], in that order: 42.3 nM and 2.3 nM.
For `C=CC(=O)N1CCC[C@@H](N(C)c2nc(Nc3cnn(CC)c3)nc3[nH]nc(SC)c23)C1` [Example 131, (R)-1-(3-((6-((1-ethyl-1H-pyrazol-4-yl)amino)-3-(methylthio)-1H-pyrazolo [3,4-d]pyrimidin-4-yl)(methyl)amino)piperidin-1-yl)prop-2-en-1-one] the same measures were 24.5 nM and 1.6 nM.
For `C=CC(=O)N1CC[C@@H](C)[C@@H](Nc2nc(Nc3cnn(CC)c3)nc3[nH]nc(SC)c23)C1` [Example 132, 1-((3R,4R)-3-((6-((1-ethyl-1H-pyrazol-4-yl)amino)-3-(methylthio)-1H-pyrazolo[3,4-d]pyrimidin-4-yl)amino)-4-methylpiperidin-1-yl)prop-2-en-1-one] the same measures were 25.5 nM and 2.1 nM.
For `C=CC(=O)N1CC[C@@H](C)[C@@H](Nc2nc(Nc3cnn(CC(F)F)c3)nc3[nH]nc(SC)c23)C1` [Example 133, 1-((3R,4R)-3-((6-((1-(2,2-difluoroethyl)-1H-pyrazol-4-yl)amino)-3-(methylthio)-1H-pyrazolo [3,4-d]pyrimidin-4-yl)amino)-4-methylpiperidin-1-yl)prop-2-en-1-one], the IC50 in test [1] amounted to 16 nM; in test [2], 1.6 nM.
For `C=CC(=O)N1CC[C@@H](C)[C@@H](Nc2nc(Nc3cnn(CC#N)c3)nc3[nH]nc(SC)c23)C1` [Example 134, 2-(4-((4-(((3R,4R)-1-acryloyl-4-methylpiperidin-3-yl)amino)-3-(methylthio)-1H-pyrazolo[3,4-d]pyrimidin-6-yl)amino)-1H-pyrazol-1-yl)acetonitrile] the same measures were 17.7 nM and 1.8 nM.
Consider `C=CC(=O)N1CC[C@@H](C)[C@@H](Nc2nc(Nc3cnn(C4CC4)c3)nc3[nH]nc(SC)c23)C1` [Example 135, 1-((3R,4R)-3-((6-((1-cyclopropyl-1H-pyrazol-4-yl)amino)-3-(methylthio)-1H-pyrazolo[3,4-d]pyrimidin-4-yl)amino)-4-methylpiperidin-1-yl)prop-2-en-1-one], for which the IC50 was determined as 42.3 nM in test [1] and 2.3 nM in test [2].

The values are drawn from patent publication EP3478687B1 (Daewoong Pharmaceutical Co., Ltd., priority 2016, dated 2018).
